Our source for the IC50 values is paper PMC6557261 (Cell chemical biology, 2019).

One test addresses T1, peroxiredoxin 1 (Prx1) (Homo sapiens, UniProt Q06830).
T1 sequence (Q06830 2-199): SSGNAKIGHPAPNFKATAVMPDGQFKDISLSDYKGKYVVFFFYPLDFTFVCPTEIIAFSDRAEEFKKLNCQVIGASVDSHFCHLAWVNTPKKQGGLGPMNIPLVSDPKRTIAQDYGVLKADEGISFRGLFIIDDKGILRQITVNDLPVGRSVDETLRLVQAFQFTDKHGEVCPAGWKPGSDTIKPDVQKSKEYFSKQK
Kind of test: glutamine synthetase protection assay with recombinant Prx1. The format is biochemical.

A further test has as its target T2, peroxiredoxin 2 (Prx2) (Homo sapiens, UniProt P32119).
T2 sequence (P32119 2-198): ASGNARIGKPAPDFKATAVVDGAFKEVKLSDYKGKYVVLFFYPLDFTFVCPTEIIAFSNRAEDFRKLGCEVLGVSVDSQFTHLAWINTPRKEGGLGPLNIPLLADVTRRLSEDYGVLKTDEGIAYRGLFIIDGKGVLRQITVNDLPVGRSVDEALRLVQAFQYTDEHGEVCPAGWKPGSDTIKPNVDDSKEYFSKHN
Kind of test: glutamine synthetase protection assay with recombinant Prx2. Format: biochemical.

Broadly, the IC50 is the point on the concentration scale where inhibition reaches its midpoint. With `CCC[C@H]1O[C@@H]2CC(=O)O[C@@H]2C2=C1C(=O)c1c(O)cccc1C2=O` [FB, frenolicin B], the IC50 came to 200 nM at peroxiredoxin 1 (Prx1) and 4.2 µM on peroxiredoxin 2 (Prx2).
